Tests used:
human EP2 receptor = molecular target: T1, human EP2 receptor (Homo sapiens, UniProt P43116); assay: Functional Assay #2AGii (Cerep EP2 Agonist Assay), cAMP production, HTRF detection; format: cell-based; conditions: mean of N=2, percent of control response to 10 μM PGE2, transfected CHO cells
T1 construct: host or cells: CHO
Source text: Alternative EP2 Receptor Agonism Assay
(Cerep, Catalog reference 758-54a; WILSON, R. J., RHODES, S. A., WOOD, R. L., SHIELD, V. J., NOEL, L. S., GRAY, D. W. and GILES H. (2004), Functional pharmacology of human prostanoid EP2 and EP4 receptors, Eur. J. Pharmacol., 501, 49.)
Evaluation of the agonist activity of compounds at the human EP2 receptor in transfected CHO cells, determined by measuring their effects on cAMP production using the HTRF detection method.
(§1) The cells are suspended in HBSS buffer (Invitrogen) complemented with HEPES 20 mM (pH 7.4) and 500 μM IBMX, then distributed in microplates at a density of 10^4 cells/well and incubated for 30 minutes at 37° C. in the absence (control) or presence of the test compound or the reference agonist. For stimulated control measurements, separate assay wells contain 10 μM PGE2. Following incubation, the cells are lysed and the fluorescence acceptor (D2-labeled cAMP) and fluorescence donor (anti-cAMP antibody labeled with europium cryptate) are added. After 60 minutes at room temperature, the fluorescence transfer is measured at λex=337 nm and λem=620 and 665 nm using a microplate reader (Rubystar, BMG). The cAMP concentration is determined by dividing the signal measured at 665 nm by that measured at 620 nm (ratio). The results are expressed as a percent of the control response to 10 μM PGE2. The standard reference agonist is PGE2, which is tested in each experiment at several concentrations to generate a concentration-response curve from which its EC50 value is calculated.

human EP4 receptor = molecular target: T2, human EP4 receptor (Homo sapiens, UniProt P35408); assay: Functional Assay #4AGii (Cerep EP4 Agonist Assay), cAMP production, HTRF detection; format: cell-based; conditions: mean of N=2, percent of control response to 1 μM PGE2, transfected CHO cells
T2 construct: host or cells: CHO
T2 sequence (P35408 whole entry): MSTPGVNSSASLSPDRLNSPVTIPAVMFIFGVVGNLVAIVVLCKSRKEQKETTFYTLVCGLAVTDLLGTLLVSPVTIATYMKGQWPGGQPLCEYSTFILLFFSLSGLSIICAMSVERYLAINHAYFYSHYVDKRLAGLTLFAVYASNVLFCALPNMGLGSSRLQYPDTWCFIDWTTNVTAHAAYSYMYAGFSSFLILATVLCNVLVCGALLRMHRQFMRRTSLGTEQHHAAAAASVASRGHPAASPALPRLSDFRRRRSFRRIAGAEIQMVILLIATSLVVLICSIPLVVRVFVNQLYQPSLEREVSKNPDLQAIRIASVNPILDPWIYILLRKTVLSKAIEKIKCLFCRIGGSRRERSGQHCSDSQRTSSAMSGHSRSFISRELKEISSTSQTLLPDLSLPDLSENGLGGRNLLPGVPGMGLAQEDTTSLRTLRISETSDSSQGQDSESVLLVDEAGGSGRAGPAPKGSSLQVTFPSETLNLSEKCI
Description: Alternative EP4 Receptor Agonism Assay
(Cerep, Catalog Reference 758-49a; Wilson, R. J., et al., Ibid.)
Evaluation of the agonist activity of compounds at the human EP4 receptor in transfected CHO cells, determined by measuring their effects on cAMP production using the HTRF detection method.
as §1, with “2.10^4” for “10^4”, “10” for “30”, “room temperature” for “37° C.”, “1” for “10”

human EP1 receptor = molecular target: T3, human EP1 receptor (Homo sapiens, UniProt P34995); assay: Functional Assay #1AGii (Cerep EP1 Agonist Assay), cytosolic Ca2+ mobilization, fluorimetric detection; format: cell-based; conditions: mean of N=2, percent of control response to 100 nM PGE2, transfected HEK-293 cells
T3 construct: host or cells: HEK-293
T3 sequence (P34995 1-402): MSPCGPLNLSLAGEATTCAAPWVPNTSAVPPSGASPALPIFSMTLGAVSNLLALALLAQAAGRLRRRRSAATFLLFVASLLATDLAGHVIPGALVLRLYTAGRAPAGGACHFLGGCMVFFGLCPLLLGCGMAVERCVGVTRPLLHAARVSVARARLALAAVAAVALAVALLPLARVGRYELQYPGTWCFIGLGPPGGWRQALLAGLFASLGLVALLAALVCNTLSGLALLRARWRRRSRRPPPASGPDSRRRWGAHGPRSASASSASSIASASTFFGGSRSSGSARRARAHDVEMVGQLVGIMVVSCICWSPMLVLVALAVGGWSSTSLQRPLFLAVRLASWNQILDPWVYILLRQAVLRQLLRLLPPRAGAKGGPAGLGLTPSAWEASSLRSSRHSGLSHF
Source text: Alternative EP1 Receptor Agonism Assay
(Cerep, Catalog reference 722-55a; UNGRIN, M. D., SINGH L. M. R., STOCCO, R., SAS, D. E. and ABRAMOVITZ, M. (1999), An automated aequorin luminescence-based functional calcium assay for G-Protein-Coupled Receptors. Analytical Biochem., 272, 34.)
Evaluation of the agonist activity of compounds at the human EP1 receptor in transfected HEK-293 cells, determined by measuring their effect on cytosolic Ca^2+ ion mobilization using a fluorimetric detection method.
The cells are suspended in DMEM buffer (Invitrogen), then distributed in microplates at a density of 3.10^4 cells/well. The fluorescent probe (Fluo4 NR, Invitrogen) mixed with probenicid in HBSS buffer (Invitrogen) complemented with 20 mM Hepes (Invitrogen) (pH 7.4) is then added into each well and equilibrated with the cells for 30 minutes at 37° C. then 30 minutes at 22° C. Thereafter, the assay plates are positioned in a microplate reader (CellLux, PerkinElmer) which is used for the addition of the test compound, reference agonist or HBSS buffer (basal control), and the measurements of changes in fluorescence intensity which varies proportionally to the free cytosolic Ca^2+ ion concentration. For stimulated control measurements, PGE2 at 100 nM is added in separate assay wells.
The results are expressed as a percent of the control response to 100 nM PGE2. The standard reference agonist is PGE2, which is tested in each experiment at several concentrations to generate a concentration-response curve from which its EC50 value is calculated.

[1] = Stability of purified HPLC peak left overnight in mobile phase; format: physicochemical; conditions: mobile phase 70:30:0.1 MeOH/H2O/AcOH
Description: Mobile phase: 70:30:0.1 MeOH/H2O/AcOH—premixed
Sample concentration: sample was dissolved at 100 mg/mL in 70:30 MeOH/H2O Peaks were collected manually at 0° C. and purified batches were kept at −20° C. at the end of each day. Peak 2 (title compound, 14.6 minute retention time) degrades about 6% when left at 4° C. overnight in mobile phase and degrades minimally (<1%) when left at −20° C. overnight. […] LCMS data of both products confirm masses consistent with the designations presented herein.

T1 sequence (P43116 whole entry): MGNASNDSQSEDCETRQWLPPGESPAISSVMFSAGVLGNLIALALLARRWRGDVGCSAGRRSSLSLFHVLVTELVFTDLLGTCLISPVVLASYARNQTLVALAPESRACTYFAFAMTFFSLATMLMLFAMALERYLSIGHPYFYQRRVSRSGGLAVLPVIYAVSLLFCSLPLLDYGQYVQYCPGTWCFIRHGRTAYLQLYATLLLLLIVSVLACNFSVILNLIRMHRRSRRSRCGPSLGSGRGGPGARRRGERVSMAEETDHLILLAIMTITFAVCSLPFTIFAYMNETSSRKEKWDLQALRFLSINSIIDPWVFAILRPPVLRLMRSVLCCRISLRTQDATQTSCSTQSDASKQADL

Row | Compound | % Control Agonist response @ compound concentration (human EP2 receptor; 0.1 μM) | % Control Agonist response @ compound concentration (human EP2 receptor; 1 μM) | % Control Agonist response @ compound concentration (human EP2 receptor; 10 μM) | % Control Agonist response @ compound concentration (human EP4 receptor; 0.1 μM) | % Control Agonist response @ compound concentration (human EP4 receptor; 1 μM) | % Control Agonist response @ compound concentration (human EP4 receptor; 10 μM) | % Control Agonist response @ compound concentration (human EP1 receptor; 0.1 μM) | % Control Agonist response @ compound concentration (human EP1 receptor; 1 μM) | % Control Agonist response @ compound concentration (human EP1 receptor; 10 μM) | degradation when left overnight in mobile phase ([1]; 4° C. overnight) | degradation when left overnight in mobile phase ([1]; −20° C. overnight)
1 | O=C(O)CCC/C=C\C[C@H]1C(=O)C[C@@H](O)[C@@H]1/C=C/[C@@H](O)c1cc2ccccc2s1 [Example 7, (Z)-7-((1R,2R,3R)-2-((R,E)-3-(benzo[b]thiophen-2-yl)-3-hydroxyprop-1-enyl)-3-hydroxy-5-oxocyclopentyl)hept-5-enoic Acid] | 0% | −1% | 5% | −1% | 4% | 29% | 80% | 88% | 144% |  | 
2 | O=C(O)CCC/C=C\C[C@H]1C(=O)C[C@H](F)[C@@H]1/C=C/[C@@H](O)C1Cc2ccccc2C1 (single isomer, unassigned) [Example 17] |  |  |  |  |  |  |  |  |  | about 6% | < 1%
